Measurements published in patent US20040019026A1, “Compounds useful for treating hypertriglyceridemia” (priority 2000, published 2004).
“And” between values parts separate entries of the source, which are not always exact repeats. Equal values may be shown once.

Assays:
Female CD-1 mice = assay: Dexamethasone-induced thymic and splenic atrophy, anti-glucocorticoid effect (Example 4); assay type: in vivo; conditions: for Spleen Wt. / Thymus Wt.: no DEX
Method: Female CD-1 mice were obtained from Charles River Laboratories, Kingston, N.Y. at 43-45 days of age. The mice were housed five per cage in plastic shoebox cages on corn cob bedding in the Fels Animal Facility at 72°±2° F. with 50%±5% humidity and twelve hours of alternate light and darkness. The mice had ad libitum access to Purina chain 5015 and acidified water for pretreatment.
Six days later, the mice were weighed, earmarked and redistributed into six groups for treatment: 1) a control group, 2) a group treated with dexamethasone (“DEX”), a glucocorticoid which induces thymic and splenic atrophy, 3) a group treated with 200 mg/kg 16α-fluoro-5-androsten-17-one (hereinafter “drug”), 4) a group treated with 400 mg/kg of, 5) a group treated with dexamethasone and 200 mg/kg drug and 6) a group treated with dexamethasone and 400 mg/kg drug. The treatment in the groups were as follows and were conducted simuitaneously.
The control group was intubated with 0.2 mL of sesame oil for three days. On the third day after commencement of the intubation, the mice were injected subcutaneously with 0.05 mL of absolute ethanol one hour after the last treatment with sesame oil.
The second group was intubated with 0.2 mL of sesame oil for three days. On the third day after the commencement of the intubation, the mice were injected subcutaneously with 1.6 mg of dexamethasone dissolved in 0.05 mL of absolute ethanol approximately one hour after the last treatment with sesame oil.
The third and fourth groups were intubated with 200 mg/Kg and 400 mg/Kg drug, respectively, suspended in 0.2 mL of sesame oil for three days. After commencement of the intubation, the mice were injected subcutaneously with 0.05 mL of absolute ethanol approximately one hour after the last treatment with sesame oil.
The fifth and sixth groups were intubated with 200 mg/kg and 400 mg/kg, respectively, of drug, suspended in 0.2 mL of sesame oil for three days. On the third day after commencement of the intubation, the mice were injected subcutaneously with 1.6 mg of dexamethasome dissolved in 0.05 mL of absolute ethanol approximately one hour after the last treatment with sesame oil.
All of the mice were sacrificed by an overdose of CO2 approximately 24 hours after the injection of ethanol (first, third and fourth groups) or approximately 24 hours after injection with dexamethasone (second, fifth and sixth groups). The mice were weighed and the thymus was excised, cleaned of adventia, rinsed in phosphate-buffered saline (P.B.S.), blotted and weighed. The spleen was also excised, cleaned, rinsed, blotted and weighed.

[1] = test system: patients with rheumatoid arthritis; assay: Oral fluasterone in rheumatoid arthritis patients, obese vs non-obese: triglycerides (Example 6); assay type: in vivo, human
Method: In this clinical trial oral fluasterone (1200 mg) was administered daily to patients with rheumatoid arthritis for 3 to 12 weeks. Nine patients had baseline triglyceride levels 200 mg/dL. These patients were divided into obese (BMI>30) and non-obese (BMI<30) groups. […] However, the conclusion would be the same without the addition of this patient.
The baseline levels was the mean value of week −2, 0 and the treatment levels were the last values obtained (week 3 to 12) for each patient. The obese patients has a BMI of 36.6±4.0 and the non-obese a BMI of 27.1±1.5.

human patients = assay: 14-day multiple dose study, 1600 mg daily: plasma triglycerides and fasting plasma glucose (Example 1); assay type: in vivo
Method: Twelve patients were treated with 16α-fluoro-5-androstene-17-one.
Smoking and intake of xanthine-containing beverages or food (coffee, tea, cola, chocolate) and alcohol within 24 hours, before and during the stay in the clinical research facilities were not allowed.
The human patients received 1600 mg of 16α-fluoro-5-androstene-17-one daily. Controls were set up so that they received 1600 mg of placebo. The triglyceride concentration in the plasma were measured pretreatment and at the end of the study. There was a significant triglyceride-lowering effect caused by the drug in the 14-day, multiple dose, study.
In 12 patients (excluding 2 placebos) receiving 1600 mg of 16α-fluoro-5-androsten-17-one daily, 4 patients, 3 males and one person, had pretreatment triglyceride levels>200 mg/dL. In this group of 4 patients there was a highly significant reduction in triglyceride values, whereas there was no apparent effect in the 8 patients with non-elevated triglycerides. The decline in one patient was additionally quite striking. […]
In addition, the fasting plasma glucose (FPG) levels were also measured in the patients before and after treatment. In the study, 3 of the 4 patients with elevated triglycerides had pre-treatment FPG levels>6.1 mM. The American Diabetes Association (ADA) has recently classified individuals with FPG of 6.1-6.9 mM as having impaired fasting glucose (IFG). Such individuals have 40% probability of developing ADA criteria for diabetes within 5 years.

[2] = test system: normal young men and women; assay: Phase I trial, oral fluasterone 14 days: HDL levels (Example 5a); assay type: in vivo, human
Method: (a) In a phase I trial in normal young men and women fluasterone was administered in a daily oral dose of 800 mg or 1600 mg for 14 days. The effect of this treatment on HDL levels in males and females is seen in the table hereinbelow.

[3] = test system: hypertriglyceridemic patients; assay: Hypertriglyceridemic patients with high or low HDL, 1200 mg daily: plasma triglycerides (Example 2); assay type: in vivo, human; conditions: for Triglyceride levels: 4 patients with low HDL levels
Method: Five hypertriglyceridemic patients had high baseline HDL levels (>50 mg/dL, 64.2±8.5, n=10, mean±S.D.) and four hypertriglyceridemic patients had low HDL levels 40.4±4.1, n=8). They were treated as before, as described in Example 1, except they received 1200 mg of 16α-fluoro-5-androsten-17-one daily. Controls were set up so that they received 1200 mg of placebo. The triglyceride concentration in the plasma were measured pretreatment and at the end of the study.
In those patients with high HDL levels, the triglycerides fell from 330±163 (n=10) to 214±56.1 (n=5). However, in 4 patients with low HDL levels (40.0±4.1), treatment with 1200 mg of 16α-fluoro-5-androsten-17-one daily for 3 to 12 weeks lowered triglyceride levels from 245±55.1 (n=8) to 139±10.6 (n=4), p<0.01.

[4] = 200 mg/kg drug intubated for three days
[5] = 400 mg/kg drug intubated for three days

C[C@]12CCCCC1=CC[C@@H]1[C@@H]2CC[C@]2(C)C(=O)[C@H](F)C[C@@H]12 [fluasterone, 16α-fluoro-5-androsten-17-one]
Spleen Wt. (Female CD-1 mice; [4]): 103.5 ± 9.2 mg
Thymus Wt. (Female CD-1 mice; [4]): 65.0 ± 5.8 mg
Effect on dexamethasone-induced thymic and splenic atrophy (Female CD-1 mice; 400 mg/kg): significantly reduced dexamethasone-induced thymic and splenic atrophy
Spleen Wt. (Female CD-1 mice; [5]): 129.4 ± 17.9 mg
Thymus Wt. (Female CD-1 mice; [5]): 74.3 ± 7.1 mg
Decline in triglyceride level, obese vs non-obese ([1]; 1200 mg oral daily, p=0.0113, group effect): significantly greater decline in triglyceride level than the non-obese
Triglycerides (mean ± S.D.) ([1]; Non-obese (BMI<30), baseline (mean of week −2, 0)): 310 mg/dL and 330 ± 163 (10) mg/dL
Triglycerides (mean ± S.D.) ([1]; Non-obese (BMI<30), treatment 1200 mg oral daily, last value (week 3 to 12)): 248 ± 89.8 (5) mg/dL
Triglycerides (mean ± S.D.) ([1]; Obese (BMI>30), baseline (mean of week −2, 0)): 232 mg/dL and 231 ± 57.1 (10) mg/dL
Triglycerides (mean ± S.D.) ([1]; Obese (BMI>30), treatment 1200 mg oral daily, last value (week 3 to 12)): 135 ± 12.1 (5) mg/dL
Plasma triglyceride Conc. (human patients; Elevated Triglyceride Group, Female (1), pretreatment): 540 ± 42 (n = 2) mg/dL
Plasma triglyceride Conc. (human patients; Elevated Triglyceride Group, Female (1), treatment 1600 mg daily, 14-day study): 118 ± 19 (n = 3) mg/dL
Plasma triglyceride Conc. (human patients; Elevated Triglyceride Group, Female and Male (4), pretreatment): 385 ± 116 (n = 8) mg/dL
Plasma triglyceride Conc. (human patients; Elevated Triglyceride Group, Female and Male (4), treatment 1600 mg daily, 14-day study): 154 ± 57 (n = 11) mg/dL
Plasma triglyceride Conc. (human patients; Elevated Triglyceride Group, Male (3), pretreatment): 333 ± 75 (n = 6) mg/dL
Plasma triglyceride Conc. (human patients; Elevated Triglyceride Group, Male (3), treatment 1600 mg daily, 14-day study): 168 ± 61 (n = 8) mg/dL
Plasma triglyceride Conc. (human patients; Normal Triglyceride Group (8 patients), pretreatment): 106 ± 34 (n = 16) mg/dL
Plasma triglyceride Conc. (human patients; Normal Triglyceride Group (8 patients), treatment 1600 mg daily, 14-day study): 128 ± 77 (n = 23) mg/dL
FPG levels of individuals with IFG (human patients; pretreatment): 6.28 ± 0.33 (6) mM
FPG levels of individuals with IFG (human patients; treatment 1600 mg daily, p < 0.02): 5.63 ± 0.45 (8) (p < 0.02) mM
HDL Levels ([2]; 800 mg daily oral for 14 days, Females (6), treatment, less than pretreatment, p < 0.015): 46.1 ± 6.2 mg/dL
HDL Levels ([2]; 800 mg daily oral for 14 days, Males (6), treatment): 45.3 ± 15.9 mg/dL
HDL Levels ([2]; 800 mg daily oral, Females (6), pretreatment): 59.2 ± 7.0 mg/dL
HDL Levels ([2]; 800 mg daily oral, Males (6), pretreatment): 50.3 ± 20.1 mg/dL
HDL Levels ([2]; 1600 mg daily oral for 14 days, Females (5), treatment): 43.0 ± 8.1 mg/dL
HDL Levels ([2]; 1600 mg daily oral for 14 days, Males (7), treatment): 40.2 ± 7.4 mg/dL
HDL Levels ([2]; 1600 mg daily oral, Females (5), pretreatment): 45.3 ± 10.1 mg/dL
HDL Levels ([2]; 1600 mg daily oral, Males (7), pretreatment): 46.1 ± 6.6 mg/dL
Triglyceride levels ([3]; after 1200 mg daily for 3 to 12 weeks, p<0.01): 139±10.6
Triglyceride levels ([3]; pretreatment): 245±55.1
Triglycerides ([3]; patients with high HDL levels (>50 mg/dL), pretreatment): 330±163
Triglycerides ([3]; patients with high HDL levels, after 1200 mg daily): 214±56.1
